In US12221453B2, “Substituted pyrazolo[5′,1′:2,3]pyrimido[5,4-b][1,4]oxazines as TYK2 inhibitors” (TAKEDA PHARMACEUTICAL COMPANY LIMITED, priority 2018, dated 2025):

The molecules below were run on IL-12 induced STAT4 phosphorylation mediated by TYK2/JAK2 (assay: IL-12 induced pSTAT4 in human PBMC). Conditions: 1 hr compound, 1.7 ng/mL IL-12 for 30 minutes.
Assay type: cell-based
Method: Human PBMC were isolated from buffy coat and are stored frozen for assays as needed. […] 15 μL of compound or DMSO was added to the well at the desired concentrations and incubated at 1 hr at 37° C. 15 μL of stimulus (final concentration of 1.7 ng/mL IL-12) was added for 30 minutes prior to pSTAT4 and total STAT4 analysis using cell lysates prepared and analyzed by MSD reagents as per manufacturer protocol. The final DMSO concentration of compound in the assay was 0.1%. The IL-12 induced pSTAT4 assay evaluates the inhibition of IL-12 induced STAT4 phosphorlyation mediated by TYK2/JAK2 ([…] complex).

Row | SMILES | IC50
1 | CNc1cc(Nc2cccn([C@H]3C[C@@H]3F)c2=O)nc2c(C(=O)NC3CCC3(F)F)cnn12 (stereo partly drawn) [Compound I-277] | < 0.1 µM
2 | CNc1cc(Nc2cccn([C@H]3CC[C@H]3O)c2=O)nc2c(C(=O)N[C@@H]3CC[C@H]3F)cnn12 [Compound I-169] | < 0.1 µM
3 | CO[C@@H]1CC[C@H]1NC(=O)c1cnn2c3c(c(Nc4cccn(C(C)C)c4=O)nc12)OCCN3 [Compound I-760] | < 0.1 µM
4 | CNc1cc(-c2cn([C@@H]3CCOC[C@@H]3OC)c3ncccc23)nc2c(C(=O)N[C@H]3CC[C@@H]3OC)cnn12 [Compound I-669] | < 0.1 µM
5 | CNc1cc(-c2cnc3n([C@@H]4COC[C@H]4OC)cccc2-3)nc2c(C(=O)NC3CC[C@@H]3F)cnn12 (stereo partly drawn) [Compound I-835] | < 0.1 µM
6 | CNc1cc(-c2cn([C@H]3COC[C@@H]3OC)c3ncccc23)nc2c(C(=O)NC3CC[C@@H]3OC)cnn12 (stereo partly drawn) [Compound I-633] | < 0.1 µM
7 | CNc1cc(Nc2cccn([C@H]3CCCOC3)c2=O)nc2c(C(=O)NC3CC[C@@H]3F)cnn12 (stereo partly drawn) [Compound I-197] | < 0.1 µM
8 | CNc1cc(-c2cn([C@@H]3CCC4(C3)OCCO4)c3ncccc23)nc2c(C(=O)N[C@H]3CC[C@@H]3OC)cnn12 [Compound I-806] | < 0.1 µM
9 | CNc1cc(-c2cn([C@H]3CCOC[C@H]3OC)c3ncccc23)nc2c(C(=O)N[C@H]3CC[C@@H]3F)cnn12 [Compound I-796] | < 0.1 µM
10 | CNc1cc(-c2cnc3n([C@@H]4CN(C)C[C@H]4OC)cccc2-3)nc2c(C(=O)N[C@H]3CC[C@@H]3OC)cnn12 [Compound I-944] | < 0.1 µM
11 | CNc1cc(-c2cnc3n([C@@H]4COC[C@H]4O)cccc2-3)nc2c(C(=O)N[C@@H]3CC[C@H]3OC)cnn12 [Compound I-876] | < 0.1 µM
12 | CNc1cc(Nc2cccn([C@@H]3CCCC[C@@H]3O)c2=O)nc2c(C(=O)N[C@@H]3CC[C@H]3F)cnn12 [Compound I-211] | < 0.1 µM
13 | CNc1cc(-c2cnc3n([C@@H]4CN(C)C[C@H]4OC)cccc2-3)nc2c(C(=O)NC3CC[C@@H]3OC)cnn12 (stereo partly drawn) [Compound I-943] | < 0.1 µM
14 | CNc1cc(-c2cn([C@@H]3CC3(F)F)c3ncccc23)nc2c(C(=O)N[C@H]3CC[C@H]3O)cnn12 [Compound I-549] | < 0.1 µM
15 | CNc1cc(-c2cnc3n([C@@H]4CCOC[C@H]4O)cccc2-3)nc2c(C(=O)N[C@H]3CC[C@@H]3F)cnn12 [Compound I-848] | < 0.1 µM
16 | CNc1cc(-c2cn(C3COC3)c3ncccc23)nc2c(C(=O)N[C@H]3CC[C@@H]3O)cnn12 [Compound I-558] | < 0.1 µM
17 | CNc1cc(Nc2cccn([C@H]3[C@@H]4COC[C@@H]43)c2=O)nc2c(C(=O)N[C@@H]3CC[C@H]3F)cnn12 [Compound I-208] | < 0.1 µM
18 | CNc1cc(Nc2cccn([C@H]3[C@@H]4COC[C@@H]43)c2=O)nc2c(C(=O)N[C@@H]3CC[C@@]3(C)OC)cnn12 [Compound I-410] | < 0.1 µM
19 | CNc1cc(-c2cn([C@H]3CCC4(C3)OCCO4)c3ncccc23)nc2c(C(=O)NC3CC[C@@H]3OC)cnn12 (stereo partly drawn) [Compound I-671] | < 0.1 µM
20 | CNc1cc(-c2cn([C@H]3CCOC[C@@H]3OC)c3ncccc23)nc2c(C(=O)N[C@H]3CC[C@@H]3OC)cnn12 [Compound I-663] | < 0.1 µM
21 | CNc1cc(Nc2cccn([C@@H]3CCC[C@@H]3O)c2=O)nc2c(C(=O)N[C@@H]3CCC3(F)F)cnn12 [Compound I-305] | < 0.1 µM
22 | CNc1cc(Nc2cccn([C@@H]3C[C@H]3F)c2=O)nc2c(C(=O)N[C@@H]3CCC3(F)F)cnn12 [Compound I-276] | < 0.1 µM
23 | CNc1ccc(-c2cc(NC)n3ncc(C(=O)N[C@H]4CC[C@@H]4F)c3n2)n2ccnc12 [Compound I-481] | < 0.1 µM

Row | SMILES | IC50
24 | CNc1cc(Nc2cccn([C@@H]3CCC[C@@H](OC)C3)c2=O)nc2c(C(=O)N[C@H]3CC[C@@H]3F)cnn12 [Compound I-228] | < 0.1 µM
25 | CNc1cc(Nc2cccn([C@@H]3C[C@H]3F)c2=O)nc2c(C(=O)NC3CCC3(F)F)cnn12 (stereo partly drawn) [Compound I-274] | < 0.1 µM
26 | CNc1cc(-c2cn([C@H]3COC[C@@H]3O)c3ncccc23)nc2c(C(=O)NC3CCC3(F)F)cnn12 (stereo partly drawn) [Compound I-695] | < 0.1 µM
27 | CNc1cc(Nc2cccn([C@@H]3CCOC[C@@H]3OC)c2=O)nc2c(C(=O)NC3CCC3(F)F)cnn12 (stereo partly drawn) [Compound I-336] | < 0.1 µM
28 | O=C(NC1CC[C@@H]1F)c1cnn2c3c(c(-c4cn(C5COC5)c5ncccc45)nc12)OCCN3 (stereo partly drawn) [Compound I-774] | < 0.1 µM
29 | CNc1cc(-c2cn([C@@H]3CN(C)C[C@H]3OC)c3ncccc23)nc2c(C(=O)N[C@H]3CC[C@@H]3OC)cnn12 [Compound I-646] | < 0.1 µM
30 | CNc1cc(Nc2cccn([C@@H]3CCC[C@H](C#N)C3)c2=O)nc2c(C(=O)N[C@H]3CCC3(F)F)cnn12 [Compound I-328] | < 0.1 µM
31 | CNc1cc(Nc2cccn([C@H]3C[C@H](F)C3)c2=O)nc2c(C(=O)N[C@@H]3CC[C@H]3OC)cnn12 [I-57, 5-((1-((1r,3R)-3-Fluorocyclobutyl)-2-oxo-1,2-dihydropyridin-3-yl)amino)-N-((1R,2R)-2-methoxycyclobutyl)-7-(methylamino)pyrazolo[1,5-a]pyrimidine-3-carboxamide] | < 0.1 µM
32 | CNc1cc(Nc2cccn([C@@H]3CC[C@H]3OC)c2=O)nc2c(C(=O)N[C@H]3CC[C@H]3O)cnn12 [Compound I-243] | < 0.1 µM
33 | CNc1cc(-c2cnc3n([C@H]4CN(C)C[C@@H]4OC)cccc2-3)nc2c(C(=O)N[C@H]3CC[C@@H]3OC)cnn12 [Compound I-947] | < 0.1 µM
34 | CNc1cc(Nc2cccn(C(C)C)c2=O)nc2c(C(=O)NC3CC[C@@H]3F)cnn12 (mixture of isomers) [Compound I-145] | < 0.1 µM
35 | CNc1cc(Nc2cccn([C@H]3CC[C@H]3O)c2=O)nc2c(C(=O)NC3CC[C@@H]3F)cnn12 (stereo partly drawn) [Compound I-167] | < 0.1 µM
36 | CNc1cc(-c2cn([C@@H]3COC[C@H]3OC)c3ccccc23)nc2c(C(=O)NC3CC[C@@H]3OC)cnn12 (stereo partly drawn) [Compound I-744] | < 0.1 µM
37 | CNc1cc(-c2cn([C@H]3CC3(F)F)c3ncccc23)nc2c(C(=O)N[C@@H]3COC[C@@H]3O)cnn12 [Compound I-711] | < 0.1 µM
38 | CNc1cc(-c2cn([C@@H]3COC[C@H]3OC)c3ncccc23)nc2c(C(=O)N[C@H]3CC[C@@H]3OC)cnn12 [Compound I-637] | < 0.1 µM
39 | CNc1cc(-c2cn([C@H]3C[C@@H](COC)C3)c3ncccc23)nc2c(C(=O)N[C@@H]3CC[C@@H]3O)cnn12 [Compound I-914] | < 0.1 µM
40 | CNc1cc(Nc2cccn([C@H]3C[C@@H](OC)C3)c2=O)nc2c(C(=O)NC3CC[C@@H]3OC)cnn12 (stereo partly drawn) [Compound I-780] | < 0.1 µM
41 | CO[C@H]1CC[C@@H]1NC(=O)c1cnn2c(N)cc(-c3cnc4n([C@H]5COC[C@@H]5OC)cccc3-4)nc12 [Compound I-1006] | < 0.1 µM
42 | CNc1cc(Nc2cccn([C@H]3C[C@H](OC)C3)c2=O)nc2c(C(=O)N[C@H]3CC[C@@H]3OC)cnn12 [Compound I-255] | < 0.1 µM
43 | CNc1cc(Nc2cccn([C@H]3[C@@H]4COC[C@@H]43)c2=O)nc2c(C(=O)NC3CC[C@@H]3F)cnn12 (stereo partly drawn) [Compound I-206] | < 0.1 µM
44 | CNc1cc(Nc2cccn([C@H]3CC[C@H]3O)c2=O)nc2c(C(=O)NC3CCC3(F)F)cnn12 (stereo partly drawn) [Compound I-286] | < 0.1 µM
45 | CNc1cc(Nc2cccn([C@H]3CCC[C@H](OC)C3)c2=O)nc2c(C(=O)N[C@H]3CC[C@@H]3F)cnn12 [Compound I-231] | < 0.1 µM
